Test results taken from PMC10837065 (Current Research in Insect Science, 2024).

Assays:
PficOrco/PficOR8 = test: Fluo4-AM calcium fluorescence, FlexStation-3, HEK293 cells; type: cell-based, Planococcus ficus; details: agonist; doxycycline-induced cells; 0.5 % DMSO
PficOrco/PficOR6 = test: as above; type: cell-based, Planococcus ficus; details: agonist; doxycycline-induced cells; 0.5 % DMSO

Row | EC50 (PficOrco/PficOR8) [µM] | EC50 (PficOrco/PficOR6) [µM] | Compound
1 | 8.6 |  | CCCC(=O)OCC(CC=C(C)C)=C(C)C [2-isopropyliden-5-methyl-4-hexen-1-yl butyrate]
2 | 52.6 | 4.6 | C=C(C)C(CC=C(C)C)COC(=O)C=C(C)C (stereo not drawn) [lavandulyl senecioate]
